# Test results reported in PMC9065145, “Open label safety and efficacy pilot to study mitigation of equine recurrent uveitis through topical suppressor of cytokine signaling-1 mimetic peptide” (Scientific Reports, 2022).
# Where two headings read alike, the source gives them in different places. Ends that are not written are not given here. palmitoyl‑Lys = palmitoyl-lysine
# T1: pJAK2 activation loop peptide (Equus caballus)
# T1 chain: LPQDKEYYKVKEP
# B1: SOCS1-KIR mimetic peptide (peptide)
# chain: {palmitoyl‑Lys}-DTHFRTFRSHSDYRRI
# Columns and labels:
# [1] = tested on: experimental autoimmune encephalomyelitis (a rodent model of multiple sclerosis); set-up: method as in PMID 21788442, PMID 21131060, PMID 33737712; settings: peritoneal administration; cited from earlier work
# induced uveitis = settings: cited from earlier work
# [2] = tested on: experimentally induced uveitis; set-up: method as in PMID 27703302, PMID 26094775; settings: rats, topical application as simple eye drop; cited from earlier work
# SOCS1-/- mice = settings: cited from earlier work
# Source text: (§1) Many of the uveal tract destructive cytokines produced by infiltrating T lymphocytes are dependent on Jak2 for either production or signal transduction[38],[46]. […] Endogenous SOCS1 binds to the activation loop of JAK2, inhibit ...
# [3] = tested on: lupus pathologies in preclinical models; settings: cited from earlier work
# Source text: as §1
# [4] = tested on: equine recurrent uveitis (ERU); assay type: in vivo, horse; settings: for Response to mimetic: symbols not defined
# Source text: A priori ERU patients with confirmed ERU but lacking severe ophthalmic decrements (evidence of chronicity), were optimal for enrollment in clinical trial. However, given the unmet need presented by ERU, horses with uncontrolled ERU-mediated inflammation were also enrolled (even with ophthalmic decrement), given that peptide efficacy could be assessed. Reduction in hyperemia was established as the primary endpoint evaluation of peptide efficacy. A priori power analysis established that nine patients would be required to assess a significant decrease in hyperemia, based on historical data from the institution. Ten total patients were enrolled through direct contact with Dr. Plummer. […] No exclusions were made, with all participants noted in Table 1. All procedures were conducted on equine patients subsequent to owner consent.
# Ten horses (7 geldings and 3 mares) diagnosed with ERU were enrolled in a short-term, open-label trial to assess the efficacy of topical SOCS1 KIR. The administration of the SOCS1 KIR peptide was in the context of a therapeutic treatment. The horses of varied breed (appaloosa, quarter horse, miniature, and paint- aged 5–21) enrolled in the trial, presenting with acute or insidious disease, were admitted into the University of Florida Veterinary Hospital for 4–7 days to begin treatments with topical SOCS1 KIR. The horses admitted to the clinic were closely evaluated for efficacy and possible negative effects of the treatment. Examinations included intraocular pressure measurement, slit lamp biomicroscopy, and direct and indirect ophthalmoscopy as possible. 200 µg of SOCS1 KIR was administered in 100 µL topically, which was a small volume that prevented reflex tear formation and possible peptide elimination. Seven of 10 patients presented with bilateral disease for a total evaluation of 17 eyes to assess peptide efficacy (Table 1). After hospitalization, ERU patients were returned to their owners, who continued peptide administration from home. The horses underwent complete physical and ophthalmic examinations at day 0, day 3, day 14, and day 42. During the ophthalmic examinations, the horses were scored for discomfort, hyperemia, and aqueous flare using a modified MacDonald-Shadduck System[35] by both the attending veterinary ophthalmologist and four additional masked veterinary ophthalmologists. Safety outcomes at each observation period included: (i) ocular irritation scores (utilizing the modified MacDonald-Shadduck scoring system-); (ii) number of new cases of ocular infections; (iii) number of horses affected with peptide-mediated damage to the eye; (iv) intraocular pressure (mmHg); and (v) ERG b-wave amplitudes to assess retinal function.
# Specific rationale is as follows: Given the novelty of the use of topical SOCS1-mimetic peptide, the administration of peptide in this pilot study was ethically conducted in open-label fashion, without randomization, so that rescue medications could be administered, if necessary. […] A single investigator (C.P.) was aware of the drug allocations and the results of clinical evaluations. However, 4 masked veterinarians were utilized to obtain the clinical scoring obtained in Fig. 4E. Given the open enrollment utilized in this pilot study and the administration of drug by patient owners at home, confounders could not be controlled. Placebo medications were not utilized, although SOCS1 mimetic peptide was provided as compassionate use as specific owners noted symptom resumption during drug dry out period (not statistically analyzed).
# Experimental data are presented as mean ± standard error of the mean […]. All statistical analyses were performed using GraphPad Prism version 8 software (GraphPad Software, La Jolla, CA, USA). For the in vivo assessment of ERU recovery, paired students t tests were utilized. The data were deemed statistically significant if P ≤ 0.05. […]
# [5] = tested on: experimentally induced uveitis; set-up: method as in PMID 27703302, PMID 26094775; settings: mice, topical application as simple eye drop; cited from earlier work
# [6] = tested on: pJAK2 (1001–1013) peptide; assay: Competitive inhibition binding assay; settings: 5 µg/mL biotinylated pJAK2 pre-incubated with increasing soluble SOCS1-KIR (8-500, printed mg/mL), RT, then direct binding assay; semi-logarithmic fit R2 ≥ 0.95; n = 3
# Protocol: Direct binding assays were performed at room temperature (RT) for 2 h as previously described[34] with modifications. Briefly, Polystyrene 96-well flat bottom plates were seeded with SOCS1 KIR peptide (500 µg/mL) in 0.05 M carbonate-bicarbonate buffer (pH 9.6). The plates were washed 4 times in the wash buffer (Phosphate-buffered saline in 0.05% Tween-20) followed by incubation for 2 h in blocking buffer (3% bovine serum albumin (BSA), 3 mM ethylenediaminetetraacetic acid (EDTA), 0.1% gelatin, and 0.05% Tween 20) and then washed 4 times. Serial dilutions of biotinylated phosphorylated JAK2 (pJAK2) in assay diluent (2% BSA, 3 mM EDTA, 0.01% gelatin, and 0.05% Tween 20) (10, 5, 2.5, 1.25, 0.625, 0.312 µg/mL) were then added to the coated plates for 90 min followed by washing 7 times. Streptavidin- horseradish peroxidase (1:4000, HRP) [BD Biosciences, Cat# 554066] was then added for 30 min followed by 12 wash cycles. Finally, 100 µL 3,3′,5,5′-Tetramethylbenzidine (TMB) substrate [BD Biosciences, Cat# 555214] was added for 30 min followed by assessment with spectrophotometer readings at an absorbance of 450 nm. For competitive Inhibition assays, 5 µg/mL biotinylated pJAK2 was pre-incubated with varying concentrations of SOCS1-KIR ([…]) for 1 h at RT prior and then, a direct binding assay was performed. […]
# [7] = target: T1, pJAK2 activation loop peptide; assay: ELISA-type direct plate binding assay
# [8] = ERU horses, topical, not reaching statistical significance
molecule,measurement,setting,value
DTHFRTFRSHSDYRRI [SOCS1-KIR],progression of experimental autoimmune encephalomyelitis,[1],inhibited progression of experimental autoimmune encephalomyelitis
same,"chemokines CCL2, CCL20 and CXCL9 and chemokine receptors CCR2, CCR4, CCR6 and CXCR3",induced uveitis; induced uveitis rodent studies,decreases
same,TH1- and TH17-associated cytokines and IL-10,"induced uveitis; rodent models of uveitis, topical administration to the eye","suppresses both TH1- and TH17- associated cytokines, while promoting the production of IL-10"
same,experimentally induced uveitis,[2],mitigated experimentally induced uveitis
same,perinatal lethality of SOCS1-/- mice,SOCS1-/- mice; peritoneal administration,rescued SOCS1-/- mice from perinatal lethality
same,circulating memory T cells and Foxp3 high T lymphocytes,"SOCS1-/- mice; rodent model of SOCS1 genetic deficiency, peritoneal injection",decreased circulating memory T cells and increased Foxp3 high T lymphocytes
same,lupus pathologies,"[3]; peritoneal administration, preclinical models",reduced lupus pathologies
same,circulating memory T cells and Foxp3 high T lymphocytes,"[3]; spontaneous lupus model, peritoneal injection",decreased circulating memory T cells and increased Foxp3 high T lymphocytes
same,resolution of inflammatory processes coinciding with administration (number of horses),"[4]; ERU horses other than patient 2, 4 horses also received diclofenac and/or atropine",eight of the remaining 9 horses
same,"reduction in clinical scoring, masked veterinary scoring of ocular photographs","[4]; ERU horses, by 6 weeks of topical treatment, four masked veterinarians, n = 8, statistically significant",75%
same,patients responsive to administration as a monotherapy,"[4]; ERU horses, topical",four of the ten patients
same,reduction in hyperemia clinical scoring,"[4]; ERU horses, topical 200 µg in 100 µl twice a day, 6-week evaluation, modified MacDonald-Shadduck score, n = 14 eyes, p < 0.01, paired t test",40%
same,reduction in aqueous flare,"[4]; ERU horses, topical 200 µg in 100 µl twice a day, 6 weeks, modified MacDonald-Shadduck score, n = 14, p < 0.01",50%
same,reduction in overall discomfort,"[4]; ERU horses, topical 200 µg in 100 µl twice a day, 6 weeks, n = 8, eyes without discomfort omitted, p < 0.05",near complete reduction
same,hypopyon,[4]; [8],consistent improvements
same,intraocular pressure,[4]; [8],consistent improvements
same,patients refractory to mimetic treatment,"[4]; ERU horses, the refractory patients had severe disease",3/10
same,Response to mimetic,"[4]; PT1: Appaloosa gelding, 21 years, severe disease, blind OS, bilateral, plus diclofenac/atropine, 9 months",+ +
same,Response to mimetic dryout period,"[4]; PT1: severe disease, plus diclofenac/atropine",yes
same,Response to mimetic,"[4]; Pt 3: Miniature gelding, 16 years, severe disease, bilateral, monotherapy, lost to followup",+ + +
same,Response to mimetic,"[4]; Pt 4: Paint mare, 16 years, moderate disease, plus atropine, 2 months",+ + +
same,Response to mimetic,"[4]; Pt 5: Appaloosa gelding, 17 years, mild disease, bilateral, monotherapy, 8 months",+ + +
same,Response to mimetic dryout period,"[4]; Pt 5: mild disease, monotherapy",yes
same,Response to mimetic,"[4]; Pt 7: Appaloosa gelding, 16 years, mild, bilateral, monotherapy, 3 months",+ + +
same,Response to mimetic dryout period,"[4]; Pt 7: mild, monotherapy",yes
same,Response to mimetic,"[4]; Pt 9: Appaloosa mare, 14 years, moderate disease, bilateral, plus diclofenac/atropine, 8 months",+ + +
same,Response to mimetic dryout period,"[4]; Pt 9: moderate disease, plus diclofenac/atropine",yes
same,"drug related negative events, long-term use",[4]; in vivo,no observed drug related negative events
same,systemic immune suppression,[4]; in vivo,no observed systemic immune suppression
same,discomfort and inflammation when treatment was resumed (compassionate use),"[4]; owner-noted, after return of inflammation in the peptide dry-out period, four owners, not quantitated",subsequent decreases in discomfort and inflammation
same,"clinical improvement, patient 2","[4]; severe ERU, minimal sight in one eye, SOCS1-KIR 2 mg/ml topical, inflammation persisted, euthanised",very modest clinical improvement
same,experimentally induced uveitis,[5],mitigated experimentally induced uveitis
same,signal intensity of pJak2 (1001–1013) binding to plate bound SOCS1-KIR peptide,[6],semi-logarithmic decrease in the signal intensity
B1,Kd,[7],1700 nM
